Assay results published in article PMC3185947 (British Journal of Cancer, 2011).
Where two headings read alike, the source gives them in different places.

What was measured:
[1] = test system: previously treated advanced non-small cell lung cancer (NSCLC)
Description: (§1) In the initial stage, we assessed the feasibility of intrapatient dose escalation from 150 mg per day to a maximal level of tolerable skin toxicity, which was defined as the TR. This objective was determined to be feasible if patients developed a TR in the absence of non-cutaneous dose-limiting toxicity (DLT). […] Skin toxicity was graded according to the following scale that was based on patient tolerability:
(§2) In the absence of both a TR and non-cutaneous DLT, the dose was increased in each patient to 200 mg per day, and then in 25 mg per day increments every 14 days. […] Toxicities were graded according to the National Cancer Institute Common Toxicity Criteria (NCI CTC), Version 2.0, except for skin toxicity.
Tumour assessments were performed using the Response Evaluation Criteria in Solid Tumours using computerised tomographic scanning or magnetic resonance imaging pretreatment and every 6–8 weeks during treatment ([Therasse et al, 2000]).

[2] = test system: patients with previously treated advanced NSCLC
Description: as §1, §2
Doses were reduced in 25 mg per day decrements for toxicity. The initial systemic intervention for symptomatic skin toxicity was minocycline 100–150 mg twice daily for at least 7 days, and the initiation of treatment with minocycline for symptomatic rash was at the discretion of the investigator.

[3] = test system: previously treated patients with non-small cell lung cancer (NSCLC); conditions: cited from earlier work; for Median survival: ref Wacker et al, 2007

## C#Cc1cccc(Nc2ncnc3cc(OCCOC)c(OCCOC)cc23)c1 [erlotinib]
[1]; All patients
  Disease control (CR+PR+SD): No. of patients with CR+PR+s.d./total no. of patients: 24/42
  Disease control (CR+PR+SD): Response rate (95% CI): 57.1 (41.0, 72.3)
  Objective responses (CR+PR): No. of patients with PR+CR/total no. of patients: 5/42
  Objective responses (CR+PR): Response rate (95% CI): 11.9 (4.0, 25.6)
[1]; Target rash feasible
  Disease control (CR+PR+SD): No. of patients with CR+PR+s.d./total no. of patients: 15/24
  Disease control (CR+PR+SD): Response rate (95% CI): 62.5 (40.6, 81.2)
  Objective responses (CR+PR): No. of patients with PR+CR/total no. of patients: 5/24
  Objective responses (CR+PR): Response rate (95% CI): 20.8 (7.1, 42.2)
[1]; Target rash not feasible
  Disease control (CR+PR+SD): No. of patients with CR+PR+s.d./total no. of patients: 9/18
  Disease control (CR+PR+SD): Response rate (95% CI): 50.0 (26.0, 74.0)
  Objective responses (CR+PR): No. of patients with PR+CR/total no. of patients: 0/18
  Objective responses (CR+PR): Response rate (95% CI): 0.0 (N/A)
[1]; all patients, 95% CI: 1.61–4.14
  Median progression-free survival (PFS): 2.3 months
[1]; five of 42 patients, 95% CI: 4.0–25.6
  Patients with a partial response (PR): 12%
[1]; five patients with PR, range, 5–76
  Median time to initial response: 6 weeks
[1]; nineteen of 42 patients
  Patients with stable disease: 45%
[1]; patients who did not experience a TR, 95% CI: 1.54, 4.14
  Median PFS: 1.9 months
[1]; patients who experienced a TR, 95% CI: 1.61, 6.97
  Median PFS: 3.5 months
[1]; patients who had TR
  Reduction in the risk of disease progression or death: 49%
[1]; patients with PR as best response, range, 5.2 to 66+
  PFS: 12 months
[1]; patients with SD as best response, range, 1.2–14.0
  PFS: 4.7 months
[1]; patients with progressive disease as best response, range, 1.2–1.9
  PFS: 1.4 months
[2]; 10 of 42 patients
  Patients with pain associated with skin toxicity: 24%
[2]; 11 of 42 patients
  Patients with urticaria as dominant feature of rash: 26%
[2]; 12 of 42 patients
  Patients in whom the rash resembled rosacea: 29%
[2]; 16 of 42 patients
  Patients with desquamation as dominant feature of rash: 38%
[2]; 19 of 24 patients with TR
  Patients with a TR who developed it at the initial 150 mg per day dose level: 79%
[2]; 24 of 42 patients, TR = grade 2 tolerable rash requiring minocycline
  Patients who developed a target rash (TR): 57%
[2]; 28 of 42 patients
  Patients with pruritus associated with skin toxicity: 67%
[2]; 41 of 42 patients
  Patients who developed skin toxicity: 98%
[2]; 42 patients
  Patients discontinued from the study due to skin toxicity: No patient
[2]; first stage of the study
  Initial patients (first stage) who developed a TR: 10 of the 11 initial patients
[2]; five of 24 patients with TR
  Patients with a TR who experienced it only after dose escalation: 21%
[2]; of 42 patients
  Patients who experienced a grade 3 rash: Six
[2]; principally due to intolerable skin toxicity despite supportive measures
  Dosing range above which erlotinib doses could not be increased in most patients: 250–300 mg per day
[2]; three of 24 patients with TR
  Patients with a TR who developed it following escalation to 200 mg per day: 13%
[2]; two of 24 patients with TR
  Patients with a TR who developed it following escalation to 225 mg per day: 8%
[3]; BR.21 study, 95% CI: 1.9–2.9 months, ref Shepherd et al, 2005
  Median PFS: 2.2 months
[3]; BR.21 study, 95% CI: 6.4–12%, ref Shepherd et al, 2005
  ORR: 8.9%
[3]; erlotinib-treated patients who did not experience skin toxicity
  Median survival: 3 months
[3]; erlotinib-treated patients with grade 1 skin toxicity
  Median survival: 7 months
[3]; erlotinib-treated patients with grade 2/3 skin toxicity
  Median survival: 11 months
